Laboratory results from ChEMBL document CHEMBL3044672, “N9- and N7-(Chloromethyl Phenymethyl)Chloropurine Derivatives from , '-Dichloroxylenes: Synthesis and Anticancer Activity” (2005).

Experiments:
Type in all cases: functional
SK-OV-3 = test: Cytotoxicity against Homo sapiens (human) SKOV3 cells after 48 hr by sulforhodamine B assay; details: SK-OV-3, 48 h
OVCAR-5 = test: Cytotoxicity against Homo sapiens (human) OVCAR5 cells after 48 hr by sulforhodamine B assay; details: OVCAR-5, 48 h
OVCAR-4 = test: Cytotoxicity against Homo sapiens (human) OVCAR4 cells after 48 hr by sulforhodamine B assay; details: OVCAR-4, 48 h
IGROV-1 = test: Cytotoxicity against Homo sapiens (human) IGROV1 cells after 48 hr by sulforhodamine B assay; details: IGROV-1, 48 h
OVCAR-3 = test: Cytotoxicity against Homo sapiens (human) OVCAR3 cells after 48 hr by sulforhodamine B assay; details: OVCAR-3, 48 h
SK-MEL-5 = test: Cytotoxicity against Homo sapiens (human) SK-MEL-5 cells after 48 hr by sulforhodamine B assay; details: SK-MEL-5, 48 h
SK-MEL-2 = test: Cytotoxicity against Homo sapiens (human) SK-MEL-2 cells after 48 hr by sulforhodamine B assay; details: SK-MEL-2, 48 h
SNB-75 = test: Cytotoxicity against Homo sapiens (human) SNB75 cells after 48 hr by sulforhodamine B assay; details: SNB-75, 48 h
T47D = test: Cytotoxicity against Homo sapiens (human) T47D cells after 48 hr by sulforhodamine B assay
MDA-MB-435 = test: Cytotoxicity against Homo sapiens (human) MDA-MB-435 cells after 48 hr by sulforhodamine B assay; details: MDA-MB-435, 48 h
Hs-578T = test: Cytotoxicity against Homo sapiens (human) Hs 578T cells after 48 hr by sulforhodamine B assay
MDA-MB-231 = test: Cytotoxicity against Homo sapiens (human) MDA-MB-231 cells after 48 hr by sulforhodamine B assay; details: MDA-MB-231, 48 h
DU-145 = test: Cytotoxicity against Homo sapiens (human) DU145 cells after 48 hr by sulforhodamine B assay; details: DU-145, 48 h
MCF7 = test: Cytotoxicity against Homo sapiens (human) MCF7 cells after 48 hr by sulforhodamine B assay; details: MCF7, 48 h
PC-3 = test: Cytotoxicity against Homo sapiens (human) PC3 cells after 48 hr by sulforhodamine B assay; details: PC-3, 48 h
TK-10 = test: Cytotoxicity against Homo sapiens (human) TK10 cells after 48 hr by sulforhodamine B assay; details: TK-10, 48 h
RXF 393 = test: Cytotoxicity against Homo sapiens (human) RXF393 cells after 48 hr by sulforhodamine B assay; details: RXF 393, 48 h
SF-295 = test: Cytotoxicity against Homo sapiens (human) SF295 cells after 48 hr by sulforhodamine B assay; details: SF-295, 48 h
SW-620 = test: Cytotoxicity against Homo sapiens (human) SW620 cells after 48 hr by sulforhodamine B assay; details: SW-620, 48 h
KM12 = test: Cytotoxicity against Homo sapiens (human) KM12 cells after 48 hr by sulforhodamine B assay; details: KM12, 48 h
HT-29 = test: Cytotoxicity against Homo sapiens (human) HT-29 cells after 48 hr by sulforhodamine B assay; details: HT-29, 48 h
HCT-116 = test: Cytotoxicity against Homo sapiens (human) HCT116 cells after 48 hr by sulforhodamine B assay; details: HCT-116, 48 h
HCC 2998 = test: Cytotoxicity against Homo sapiens (human) HCC2998 cells after 48 hr by sulforhodamine B assay; details: HCC 2998, 48 h
COLO 205 = test: Cytotoxicity against Homo sapiens (human) COLO205 cells after 48 hr by sulforhodamine B assay; details: COLO 205, 48 h
NCI-H460 = test: Cytotoxicity against Homo sapiens (human) NCI-H460 cells after 48 hr by sulforhodamine B assay; details: NCI-H460, 48 h
NCI-H322M = test: Cytotoxicity against Homo sapiens (human) NCI-H322M cells after 48 hr by sulforhodamine B assay
HOP-62 = test: Cytotoxicity against Homo sapiens (human) HOP62 cells after 48 hr by sulforhodamine B assay; details: HOP-62, 48 h
EKVX = test: Cytotoxicity against Homo sapiens (human) EKVX cells after 48 hr by sulforhodamine B assay
RPMI-8226 = test: Cytotoxicity against Homo sapiens (human) RPMI8226 cells after 48 hr by sulforhodamine B assay; details: RPMI-8226, 48 h
MOLT-4 = test: Cytotoxicity against Homo sapiens (human) MOLT4 cells after 48 hr by sulforhodamine B assay; details: MOLT-4, 48 h
SF-268 = test: Cytotoxicity against Homo sapiens (human) SF268 cells assessed as cell growth at 10^-4 M after 48 hr by […] assay; details: SF-268, 48 h, read-out: Activity
[1] = read-out: LC50 (the source's name)

For `ClCc1ccccc1Cn1cnc2ncnc(Cl)c21`, the GI50 (SK-OV-3) was 7.58 µM, the LC50 (SK-OV-3) was 85.1 µM and the TGI (SK-OV-3) was 26.9 µM. For the same molecule, the GI50 (OVCAR-5) was 2.81 µM, the TGI (OVCAR-5) was 7.24 µM and the CC50 (OVCAR-5; [1]) was 26.9 µM. It also gave a GI50 (OVCAR-4) of 4.89 µM, an LC50 (concentration killing 50% of cells) (OVCAR-4) of 77.6 µM and a TGI (OVCAR-4) of 20.4 µM. The GI50 (IGROV-1) was 4.26 µM, the LC50 (IGROV-1) was greater than 100 µM and the TGI (IGROV-1) was 22.9 µM. For the same molecule, the GI50 (OVCAR-3) was 2.04 µM, the LC50 (OVCAR-3) was 8.31 µM and the TGI (OVCAR-3) was 4.16 µM. For the same molecule, the GI50 (SK-MEL-5) was 1.38 µM, the LC50 (SK-MEL-5) was 15.8 µM and the TGI (SK-MEL-5) was 4.07 µM. The GI50 (SK-MEL-2) was 4.16 µM, the LC50 (concentration killing 50% of cells) (SK-MEL-2) was greater than 100 µM and the TGI (SK-MEL-2) was 19.5 µM. For the same molecule, the GI50 (SNB-75) was 11.2 µM, the TGI (SNB-75) was 26.9 µM and the CC50 (SNB-75; [1]) was 63.1 µM. The GI50 (T47D) was 1.99 µM, the LC50 (T47D) was 4.26 µM and the TGI (T47D) was 4.26 µM. For the same molecule, the GI50 (MDA-MB-435) was 1.94 µM, the LC50 (MDA-MB-435) was 7.58 µM and the TGI (MDA-MB-435) was 3.8 µM. For the same molecule, the GI50 (Hs-578T) was 2.29 µM, the LC50 (Hs-578T) was 66.1 µM and the TGI (Hs-578T) was 6.02 µM. The GI50 (MDA-MB-231) was 2.75 µM, the LC50 (MDA-MB-231) was 25.1 µM and the TGI (MDA-MB-231) was 6.91 µM. It also gave a GI50 (DU-145) of 2.95 µM, an LC50 (DU-145) of 33.1 µM and a TGI (DU-145) of 10.2 µM. For the same molecule, the GI50 (MCF7) was 3.63 µM, the LC50 (concentration killing 50% of cells) (MCF7) was greater than 100 µM and the TGI (MCF7) was greater than 100 µM. It also gave a GI50 (PC-3) of 4.46 µM, an LC50 (concentration causing 50% cell kill) (PC-3) of 74.1 µM and a TGI (PC-3) of 19.1 µM. The GI50 (TK-10) was 3.46 µM, the TGI (TK-10) was 9.54 µM and the CC50 (TK-10; [1]) was 33.9 µM. It also gave a GI50 (RXF 393) of 1.65 µM, a TGI (RXF 393) of 6.54 µM and a CC50 (RXF 393; [1]) greater than 100 µM. It also gave a GI50 (SF-295) of 7.94 µM, a TGI (SF-295) of 20.4 µM and a CC50 (SF-295; [1]) of 46.8 µM. The GI50 (SW-620) was 2.23 µM, the TGI (SW-620) was 4.67 µM and the CC50 (SW-620; [1]) was 10 µM. For the same molecule, the GI50 (KM12) was 3.63 µM, the TGI (KM12) was 11.2 µM and the CC50 (KM12; [1]) was 38 µM. For the same molecule, the GI50 (HT-29) was 3.89 µM, the TGI (HT-29) was greater than 100 µM and the CC50 (HT-29; [1]) was greater than 100 µM. For the same molecule, the GI50 (HCT-116) was 1.51 µM, the TGI (HCT-116) was 4.07 µM and the CC50 (HCT-116; [1]) was 40.7 µM. It also gave a GI50 (HCC 2998) of 2.23 µM, a TGI (HCC 2998) of 4.26 µM and a CC50 (HCC 2998; [1]) of 7.94 µM. It also gave a GI50 (COLO 205) of 4.36 µM, a TGI (COLO 205) greater than 100 µM and a CC50 (COLO 205; [1]) greater than 100 µM. It also gave a GI50 (NCI-H460) of 13.5 µM, a TGI (NCI-H460) of 60.2 µM and a CC50 (NCI-H460; [1]) greater than 100 µM. For the same molecule, the GI50 (NCI-H322M) was 4.67 µM, the TGI (NCI-H322M) was 15.8 µM and the CC50 (NCI-H322M; [1]) was 40.7 µM. The GI50 (HOP-62) was 11.2 µM, the TGI (HOP-62) was 28.8 µM and the CC50 (HOP-62; [1]) was 75.9 µM. For the same molecule, the GI50 (EKVX) was 5.37 µM, the TGI (EKVX) was 17.8 µM and the CC50 (EKVX; [1]) was 45.7 µM. The GI50 (RPMI-8226) was 2.08 µM, the TGI (RPMI-8226) was 5.49 µM and the CC50 (RPMI-8226; [1]) was 50.1 µM. It also gave a GI50 (MOLT-4) of 1.65 µM, a TGI (MOLT-4) of 4.26 µM and a CC50 (MOLT-4; [1]) of 16.6 µM. The growth at 100 µM (SF-268) was 0%.
